Measured values taken from ChEMBL document CHEMBL4765432, “Design and synthesis of novel Flavone-based histone deacetylase inhibitors antagonizing activation of STAT3 in breast cancer” (Eur J Med Chem, 2020).
Active and inactive are the calls of the source. The rule behind the calls is not given here.

Columns and labels:
[1] = Toxicity in C57BL/6 mouse assessed death of organism at 300 mg/kg, ip observed for 24 hrs; assay type: organism-based; settings: in vivo
Histone deacetylase 5 [2] = molecular target: T1, Histone deacetylase 5 (Homo sapiens, UniProt Q9UQL6); assay: (§1) Inhibition of recombinant human N-terminal GST-tagged HDAC-5 (617 to end residues) expressed in baculovirus infected in Sf9 cells using Boc-Lys (q-Ac)-AMC as substrate incubated for 10 mins followed by substrate addition and measured after 30 mins by fluorescence based assay
Histone deacetylase 5 [3] = molecular target: T1, Histone deacetylase 5; assay: as §1, with “cells at 10 uM” for “cells”, “assay relative to control” for “assay”; settings: time 40.0 min
Histone deacetylase 9 = Histone deacetylase 9 (Homo sapiens, UniProt Q9UKV0); assay: Inhibition of recombinant human N-terminal GST-tagged HDAC-9 (548 to end residues) expressed in baculovirus infected in Sf9 cells using Boc-Lys (q-Ac)-AMC as substrate incubated for 10 mins followed by substrate addition and measured after 30 mins by fluorescence based assay
BT-549 = assay: Cytotoxicity against human BT-549 cells assessed as reduction in cell viability incubated for 48 hrs by MTT assay; assay type: functional, cell-based; settings: BT-549, 48 h
T47D = assay: Cytotoxicity against human T47D cells assessed as reduction in cell viability incubated for 48 hrs by MTT assay; assay type: functional, cell-based
Bcap37 = assay: Cytotoxicity against human Bcap37 cells assessed as reduction in cell viability incubated for 48 hrs by MTT assay; assay type: functional, cell-based; settings: Bcap37, 48 h
[4] = Cytotoxicity against human B16-F10 cells assessed as reduction in cell viability incubated for 48 hrs by MTT assay; assay type: functional, cell-based; settings: B16-F10, 48 h
A-375 = assay: Cytotoxicity against human A-375 cells assessed as reduction in cell viability incubated for 48 hrs by MTT assay; assay type: functional, cell-based; settings: A-375, 48 h
Bel-7402 = assay: Cytotoxicity against human Bel-7402 cells assessed as reduction in cell viability incubated for 48 hrs by MTT assay; assay type: functional, cell-based; settings: Bel-7402, 48 h
NCI-H1581 = assay: Cytotoxicity against human NCI-1581 cells assessed as reduction in cell viability incubated for 48 hrs by MTT assay; assay type: functional, cell-based; settings: NCI-H1581, 48 h
MDA-MB-231 [5] = assay: Induction of cell cycle arrest in human MDA-MB-231 cells assessed as G2/M phase accumulation at 1 uM incubated for 24 hrs by PI staining based flow cytometry analysis (reference value: 27.08 %); assay type: functional
4T1 [6] = assay: Induction of cell cycle arrest in mouse 4T1 cells assessed as G0/G1 phase accumulation at 2 uM incubated for 24 hrs by PI staining based flow cytometry analysis (reference value: 42.06 %); assay type: functional
4T1 [7] = assay: Induction of cell cycle arrest in mouse 4T1 cells assessed as increase in G0/G1 phase accumulation incubated for 24 hrs by flow cytometry analysis; assay type: functional, cell-based; settings: dose 1-2 µM
MDA-MB-231 [8] = assay: Induction of cell cycle arrest in human MDA-MB-231 cells assessed as increase in G0/G1 phase accumulation incubated for 24 hrs by flow cytometry analysis; assay type: functional, cell-based; settings: dose 1-2 µM
MDA-MB-231 [9] = assay: Induction of apoptosis in human MDA-MB-231 cells assessed as viable cells at 1 uM incubated for 72 hrs by annexinV-FITC and PI staining based flow cytometry analysis (reference value: 90.3 %); assay type: functional; settings: read-out: Activity
MDA-MB-231 [10] = assay: Induction of apoptosis in human MDA-MB-231 cells assessed as necrotic cells at 1 uM incubated for 72 hrs by annexinV-FITC and PI staining based flow cytometry analysis (reference value: 0.330 %); assay type: functional
MDA-MB-231 [11] = assay: Induction of apoptosis in human MDA-MB-231 cells assessed as early apoptotic cells at 5 uM incubated for 72 hrs by annexinV-FITC and PI staining based flow cytometry analysis (reference value: 5.57 %); assay type: functional
4T1 [12] = assay: Induction of apoptosis in mouse 4T1 cells assessed as viable cells at 1 uM incubated for 72 hrs by annexinV-FITC and PI staining based flow cytometry analysis (reference value: 91.1 %); assay type: functional; settings: read-out: Activity
4T1 [13] = assay: Induction of apoptosis in mouse 4T1 cells assessed as necrotic cells at 1 uM incubated for 72 hrs by annexinV-FITC and PI staining based flow cytometry analysis (reference value: 5.00 %); assay type: functional
4T1 [14] = assay: Induction of apoptosis in mouse 4T1 cells assessed as early apoptotic cells at 2.5 uM incubated for 72 hrs by annexinV-FITC and PI staining based flow cytometry analysis (reference value: 1.65 %); assay type: functional
4T1 [15] = assay: Induction of apoptosis in mouse 4T1 cells assessed as necrotic cells at 2.5 uM incubated for 72 hrs by annexinV-FITC and PI staining based flow cytometry analysis (reference value: 5.00 %); assay type: functional
4T1 [16] = assay: Induction of apoptosis in mouse 4T1 cells assessed as late apoptotic cells at 5 uM incubated for 72 hrs by annexinV-FITC and PI staining based flow cytometry analysis (reference value: 2.24 %); assay type: functional
[17] = AUC (0 to infinity) in Sprague-Dawley rat at 20 mg/kg, po measured upto 12 hrs by LC-MS/MS analysis; assay type: ADME, organism-based; design: route oral, dose 20 mg/kg, time <=12; settings: in vivo
[18] = Cmax in Sprague-Dawley rat at 20 mg/kg, iv measured upto 12 hrs by LC-MS/MS analysis; assay type: ADME, organism-based; design: route intravenous, dose 20 mg/kg, time <=12; settings: in vivo
[19] = Tmax in Sprague-Dawley rat at 20 mg/kg, iv measured upto 12 hrs by LC-MS/MS analysis; assay type: ADME, organism-based; settings: in vivo
[20] = Half life in Sprague-Dawley rat at 20 mg/kg, iv measured upto 12 hrs by LC-MS/MS analysis; assay type: ADME, organism-based; settings: in vivo
[21] = MRT in Sprague-Dawley rat at 20 mg/kg, iv measured upto 12 hrs by LC-MS/MS analysis; assay type: ADME, organism-based; settings: in vivo
[22] = molecular target: Voltage-gated inwardly rectifying potassium channel KCNH2 (Homo sapiens, UniProt Q12809); assay: Inhibition of human ERG
[23] = Genotoxicity in Salmonella typhimurium TA97a by Ames test; assay type: toxicity; settings: salmonella enterica subsp. enterica serovar typhimurium
[24] = Genotoxicity in Salmonella typhimurium TA98 by Ames test; assay type: toxicity; settings: salmonella enterica subsp. enterica serovar typhimurium
[25] = Genotoxicity in Salmonella typhimurium TA1535 by Ames test; assay type: toxicity; settings: salmonella enterica subsp. enterica serovar typhimurium
4T1 [26] = assay: Antitumor activity against mouse 4T1 cells xenografted in BALB/c mouse assessed as tumor growth inhibition at 20 mg/kg, ip administered for 22 days and measured on day 22; assay type: functional, organism-based; settings: time 22.0 day
4T1 [27] = assay: Antitumor activity against mouse 4T1 cells xenografted in BALB/c mouse assessed as tumor growth inhibition at 50 mg/kg, po administered for 22 days and measured on day 22; assay type: functional, organism-based; settings: time 22.0 day
MDA-MB-231 [28] = assay: Antitumor activity against human MDA-MB-231 cells xenografted in BALB/c mouse assessed as tumor growth inhibition at 25 mg/kg, ip administered for 34 days and measured on day 34; assay type: functional, organism-based; settings: time 34.0 day
[29] = Toxicity in BALB/c mouse xenografted with mouse 4T1 cells assessed as effect on body weight at 20 mg/kg, ip administered for 22 days and measured on day 22; assay type: organism-based; settings: in vivo, 528 h, time 22 day
[30] = Toxicity in BALB/c mouse xenografted with human MDA-MB-231 cells assessed as effect on body weight at 25 mg/kg, ip administered for 34 days and measured on day 34; assay type: organism-based; settings: in vivo, 816 h, time 34 day

T1 sequence (Q9UQL6 whole entry): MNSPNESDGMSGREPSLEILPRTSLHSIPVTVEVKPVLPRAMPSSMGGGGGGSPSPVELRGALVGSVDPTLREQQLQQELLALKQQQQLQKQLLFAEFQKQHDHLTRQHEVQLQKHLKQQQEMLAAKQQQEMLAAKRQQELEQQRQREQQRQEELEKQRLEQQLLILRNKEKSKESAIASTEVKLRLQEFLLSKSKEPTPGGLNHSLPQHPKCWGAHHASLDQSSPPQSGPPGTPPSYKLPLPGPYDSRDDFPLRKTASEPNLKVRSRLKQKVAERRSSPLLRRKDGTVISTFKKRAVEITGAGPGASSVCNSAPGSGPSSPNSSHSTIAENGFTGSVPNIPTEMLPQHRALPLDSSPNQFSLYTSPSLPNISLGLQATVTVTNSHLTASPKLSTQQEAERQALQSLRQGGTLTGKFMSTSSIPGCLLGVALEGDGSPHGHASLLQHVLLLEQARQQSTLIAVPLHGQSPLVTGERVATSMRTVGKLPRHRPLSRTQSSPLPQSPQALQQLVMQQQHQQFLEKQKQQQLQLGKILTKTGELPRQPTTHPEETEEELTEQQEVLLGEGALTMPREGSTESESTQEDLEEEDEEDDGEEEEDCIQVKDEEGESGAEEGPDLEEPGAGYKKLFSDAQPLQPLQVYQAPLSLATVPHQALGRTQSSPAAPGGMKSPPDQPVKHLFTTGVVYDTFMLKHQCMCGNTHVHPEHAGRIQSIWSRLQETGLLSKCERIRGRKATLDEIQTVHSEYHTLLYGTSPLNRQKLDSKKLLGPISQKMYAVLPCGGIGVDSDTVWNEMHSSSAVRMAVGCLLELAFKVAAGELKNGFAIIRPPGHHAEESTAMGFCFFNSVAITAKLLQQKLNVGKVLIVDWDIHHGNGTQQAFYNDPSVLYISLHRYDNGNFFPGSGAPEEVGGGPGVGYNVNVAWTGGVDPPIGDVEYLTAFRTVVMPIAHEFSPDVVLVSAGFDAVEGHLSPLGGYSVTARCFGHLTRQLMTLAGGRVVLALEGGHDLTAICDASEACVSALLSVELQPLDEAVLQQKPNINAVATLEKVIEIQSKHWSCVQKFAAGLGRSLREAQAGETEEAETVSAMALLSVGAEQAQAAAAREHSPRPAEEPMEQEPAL
Histone deacetylase 9, sequence (Q9UKV0 whole entry): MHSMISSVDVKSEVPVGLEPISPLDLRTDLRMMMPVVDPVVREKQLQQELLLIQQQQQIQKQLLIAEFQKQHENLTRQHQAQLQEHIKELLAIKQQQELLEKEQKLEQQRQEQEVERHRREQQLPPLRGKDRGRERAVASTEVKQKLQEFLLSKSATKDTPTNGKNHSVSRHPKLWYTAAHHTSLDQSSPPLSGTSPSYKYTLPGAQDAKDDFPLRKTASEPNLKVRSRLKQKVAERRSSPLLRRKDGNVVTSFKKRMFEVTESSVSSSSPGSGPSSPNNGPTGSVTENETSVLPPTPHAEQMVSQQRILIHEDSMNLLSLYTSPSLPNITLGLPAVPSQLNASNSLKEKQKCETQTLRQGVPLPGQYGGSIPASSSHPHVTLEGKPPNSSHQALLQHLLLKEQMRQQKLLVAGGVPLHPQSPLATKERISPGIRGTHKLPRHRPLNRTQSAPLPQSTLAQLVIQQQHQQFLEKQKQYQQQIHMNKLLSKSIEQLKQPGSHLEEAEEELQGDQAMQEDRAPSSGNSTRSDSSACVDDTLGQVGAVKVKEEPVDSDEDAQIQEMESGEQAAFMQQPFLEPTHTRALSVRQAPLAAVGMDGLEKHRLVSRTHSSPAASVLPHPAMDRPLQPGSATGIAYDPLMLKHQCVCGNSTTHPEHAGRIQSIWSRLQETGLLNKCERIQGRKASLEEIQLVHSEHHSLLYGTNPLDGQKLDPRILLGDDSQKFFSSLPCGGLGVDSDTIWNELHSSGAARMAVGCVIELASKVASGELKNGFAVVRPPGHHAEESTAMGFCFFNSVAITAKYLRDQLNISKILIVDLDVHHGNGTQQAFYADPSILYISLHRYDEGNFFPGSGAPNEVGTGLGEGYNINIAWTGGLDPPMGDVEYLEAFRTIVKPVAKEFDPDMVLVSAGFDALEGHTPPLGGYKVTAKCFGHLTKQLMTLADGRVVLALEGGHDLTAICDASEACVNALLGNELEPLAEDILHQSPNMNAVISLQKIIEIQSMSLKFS
Voltage-gated inwardly rectifying potassium channel KCNH2, sequence (Q12809 whole entry): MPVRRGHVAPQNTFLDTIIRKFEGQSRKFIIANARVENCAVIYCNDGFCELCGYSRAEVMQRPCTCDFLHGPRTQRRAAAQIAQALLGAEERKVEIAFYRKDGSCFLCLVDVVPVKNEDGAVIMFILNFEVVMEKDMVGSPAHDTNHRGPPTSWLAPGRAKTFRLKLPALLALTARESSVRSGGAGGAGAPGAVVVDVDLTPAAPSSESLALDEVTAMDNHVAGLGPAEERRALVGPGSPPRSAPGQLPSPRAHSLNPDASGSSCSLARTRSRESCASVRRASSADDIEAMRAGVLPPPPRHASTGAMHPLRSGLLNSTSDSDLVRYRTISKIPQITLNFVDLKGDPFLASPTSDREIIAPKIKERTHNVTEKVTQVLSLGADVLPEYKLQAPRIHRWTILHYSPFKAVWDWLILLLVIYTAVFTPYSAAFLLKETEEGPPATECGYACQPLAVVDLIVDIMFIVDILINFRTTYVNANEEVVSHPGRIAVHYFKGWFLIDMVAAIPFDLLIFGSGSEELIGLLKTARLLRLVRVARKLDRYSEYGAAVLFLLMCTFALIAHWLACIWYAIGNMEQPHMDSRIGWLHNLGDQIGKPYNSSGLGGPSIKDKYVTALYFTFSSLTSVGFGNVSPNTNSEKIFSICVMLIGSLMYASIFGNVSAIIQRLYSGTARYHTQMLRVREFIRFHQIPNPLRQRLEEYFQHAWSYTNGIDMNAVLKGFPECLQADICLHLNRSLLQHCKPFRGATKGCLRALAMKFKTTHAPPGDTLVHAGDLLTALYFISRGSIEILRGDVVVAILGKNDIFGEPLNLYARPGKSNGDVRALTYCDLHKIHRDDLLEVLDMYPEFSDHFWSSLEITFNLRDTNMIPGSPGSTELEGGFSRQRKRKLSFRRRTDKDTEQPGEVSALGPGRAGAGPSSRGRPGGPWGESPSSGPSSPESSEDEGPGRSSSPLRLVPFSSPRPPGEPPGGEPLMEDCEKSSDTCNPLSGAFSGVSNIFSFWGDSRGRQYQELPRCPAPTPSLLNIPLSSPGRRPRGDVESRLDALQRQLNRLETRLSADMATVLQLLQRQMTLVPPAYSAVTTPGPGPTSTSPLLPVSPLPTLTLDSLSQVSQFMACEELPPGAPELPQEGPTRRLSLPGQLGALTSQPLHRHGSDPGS

## CN(C)CCOc1ccc(-c2cc(=O)c3c(O)cc(OCCCCCC(=O)NO)cc3o2)cc1.Cl
[1]
  Activity: Non-Toxic
Histone deacetylase 5 [2]
  IC50: > 10 µM
Histone deacetylase 5 [3]
  inhibition: 38%
Histone deacetylase 9
  IC50: > 10 µM
BT-549
  IC50: 4.13 µM
T47D
  IC50: 1.53 µM
Bcap37
  IC50: 3.28 µM
[4]
  IC50: 0.51 µM
A-375
  IC50: 1.18 µM
Bel-7402
  IC50: 3.31 µM
NCI-H1581
  IC50: 2.32 µM
MDA-MB-231 [5]
  Activity: 42.82%
4T1 [6]
  Activity: 62.91%
4T1 [7]
  Activity: Dose-dependent effect
MDA-MB-231 [8]
  Activity: Dose-dependent effect
MDA-MB-231 [9]
  viability at 1 µM: 64.8%
MDA-MB-231 [10]
  Activity: 0.13%
MDA-MB-231 [11]
  Activity: 55%
4T1 [12]
  viability at 1 µM: 72.3%
4T1 [13]
  Activity: 3.6%
4T1 [14]
  Activity: 31.4%
4T1 [15]
  Activity: 1.8%
4T1 [16]
  Activity: 21.9%
[17]
  AUC(0-inf): 1640 ng·h/mL
[18]
  Cmax: 2180 ng/mL
[19]
  Tmax: 4.98 min
[20]
  half-life: 1.42 h
[21]
  MRT: 1.25 h
[22]
  IC50: 1.2 µM
[23]
  Activity: Non-Toxic
[24]
  Activity: Toxic
[25]
  Activity: Non-Toxic
4T1 [26]
  TGI: Active
4T1 [27]
  TGI: Active
MDA-MB-231 [28]
  TGI: Active
[29]
  Activity: Non-Toxic
[30]
  Activity: Non-Toxic
